Legend:
Plasmopara viticola = assay: Antisporulant activity against vine downy mildew (PVA); assay type: in vivo; conditions: vine leaves, antisporulant foliar spray, 600 ppm, 750 l/ha
How it was run: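 Cabernet Sauvignon vines (~8 cm) inoculated on lower leaf surfaces with 5×10^4 zoosporangia/ml, held 24 h at 21° C high humidity then 24 h glasshouse. Infected leaves sprayed underside with 600 ppm compound in 1:1 water/acetone, 0.04% Tween 20, 750 l/ha; 96 h glasshouse, 24 h humidity. Sporulating leaf area rated versus control.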

Alternaria solani = assay: Activity against tomato early blight (AS); assay type: in vivo; conditions: Table VI; tomato seedlings, contact prophylactic foliar spray, 4 days
How it was run: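 Plants were challenged with A. solani conidia (10^4 spores/ml) 24 h after a protective foliar spray of compound in 50:50 acetone/water plus 0.04% Tween 20. Held humid at 21° C for 4 days, then percent leaf area with lesions was scored as a rating relative to controls.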

Botrytis cinerea = assay: Direct protectant activity against broad bean grey mould (BCB); assay type: in vivo; conditions: direct protectant foliar spray, 600 ppm, 4 days
How it was run: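 Protectant foliar test: lesion coverage assessed 4 days after inoculation and rated relative to untreated or diluent-sprayed plants. Compound applied at 600 ppm to cv The Sutton leaves 24 h before 10^6 conidia/ml suspension; incubation at 22 °C in high humidity.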

Leptosphaeria nodorum = assay: Activity against wheat leafspot (LN); assay type: in vivo; conditions: direct therapeutic foliar spray, 600 ppm, 6-8 days
How it was run: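 Therapeutic foliar spray: compound at 600 ppm applied to single-leaf wheat (cv Norman) 24 h after inoculation with 1.5×10^6 conidia/ml. Disease control scored after 6-8 days at 22° C and 70% humidity as lesions per leaf versus untreated or diluent-sprayed controls.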

[1] = system: Erysiphe graminis f.sp. hordei; assay: Activity against barley powdery mildew, direct therapeutic (EGT); assay type: in vivo; conditions: direct therapeutic foliar spray, 600 ppm, up to 7 days
How it was run: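 A curative spray at 600 ppm was applied to single-leaf Golden Promise barley inoculated with powdery mildew conidia the previous day. After up to 7 days at 18 °C and 40% humidity, disease control was rated from percent leaf area sporulating relative to untreated or diluent-sprayed controls.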

[2] = system: Erysiphe graminis f.sp. hordei; assay: Direct protectant activity against barley powdery mildew (EGP); assay type: in vivo; conditions: direct protectant foliar spray, 8 days
How it was run: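 Rating reflects percentage of leaf area with sporulation compared with untreated or diluent-sprayed controls. Protectant spray was applied to single-leaf barley (cv Golden Promise) 24 h before conidia inoculation. Plants were kept at 18 °C and 40% RH throughout, with 8 days of disease development.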

Phytophthora infestans = assay type: in vivo; conditions: tomato, direct protectant foliar spray
[3] = system: Pseudocercosporella herpotrichoides; assay: Activity against wheat eyespot in-vitro (PHI); assay type: cell-based; conditions: 10 ppm, 10 days, 20° C., mycelial growth
How it was run: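 Mycelial growth was scored after 10 days at 20 °C against untreated or diluent controls. The broth was half-strength potato dextrose, holding 10 ppm test compound (from acetone) and 5×10^4 fragments/ml of the eyespot fungus.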

Rhizoctonia solani = assay: Activity against Rhizoctonia in-vitro (RSI); assay type: cell-based; conditions: 10 ppm, 10 days, 20° C., mycelial growth
How it was run: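 Compound at a final 10 ppm (acetone vehicle) in half-strength PDB, inoculated with 5×10^4 fragments/ml of shaken-culture R. solani mycelium. After incubation at 20° C for 10 days, growth scored as a rating versus untreated or diluent-treated controls.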

Venturia inaequalis = assay: Activity against apple scab in-vitro (VII); assay type: cell-based; conditions: 10 ppm, 10 days, 20° C., mycelial growth
How it was run: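 V. inaequalis propagules (5×10^4/ml, malt agar-grown) were exposed in half-strength PDB to 10 ppm final test compound delivered in acetone. Growth was scored after incubation for 10 days at 20° C, as a rating relative to untreated or diluent-sprayed controls.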

Pyricularia oryzae = assay type: in vivo; conditions: rice seedlings, direct therapeutic foliar spray, 600 ppm, 4-5 days

## CN(C1CCCCC1)C1COC2(CCC(C(C)(C)C)CC2)C1 (stereo not shown) [Compound 20]
Plasmopara viticola
  disease control rating PVA: 0 (less than 50% disease control)
Alternaria solani
  disease control rating AS: 0 (less than 50% disease control)
Botrytis cinerea
  disease control rating BCB: 0 (less than 50% disease control)
Leptosphaeria nodorum
  disease control rating LN: 0 (less than 50% disease control)
[1]
  disease control rating EGT: 2 (greater than 80% disease control)
[2]
  disease control rating EGP: 2 (greater than 80% disease control)
Phytophthora infestans
  disease control rating PIP: 0 (less than 50% disease control)
[3]
  disease control rating PHI: 0 (less than 50% disease control)
Rhizoctonia solani
  disease control rating RSI: 0 (less than 50% disease control)
Venturia inaequalis
  disease control rating VII: 1 (about 50-80% disease control)
Pyricularia oryzae
  disease control rating PO: 0 (less than 50% disease control)

## CC(C)(C)C1CCC2(CC1)CC(N1CCCCCC1)CO2 (stereo not shown) [Compound 21]
Plasmopara viticola
  disease control rating PVA: 0 (less than 50% disease control)
Alternaria solani
  disease control rating AS: 0 (less than 50% disease control)
Botrytis cinerea
  disease control rating BCB: 2 (greater than 80% disease control)
Leptosphaeria nodorum
  disease control rating LN: 0 (less than 50% disease control)
[1]
  disease control rating EGT: 2 (greater than 80% disease control)
[2]
  disease control rating EGP: 2 (greater than 80% disease control)
Phytophthora infestans
  disease control rating PIP: 0 (less than 50% disease control)
[3]
  disease control rating PHI: 0 (less than 50% disease control)
Rhizoctonia solani
  disease control rating RSI: 0 (less than 50% disease control)
Venturia inaequalis
  disease control rating VII: 1 (about 50-80% disease control)
Pyricularia oryzae
  disease control rating PO: 0 (less than 50% disease control)

## CC(C)(C)C1CCC2(CC1)CC(Nc1ccccc1)CO2 (stereo not shown) [Compound 22]
Plasmopara viticola
  disease control rating PVA: 0 (less than 50% disease control)
Alternaria solani
  disease control rating AS: 0 (less than 50% disease control)
Botrytis cinerea
  disease control rating BCB: 0 (less than 50% disease control)
Leptosphaeria nodorum
  disease control rating LN: 0 (less than 50% disease control)
[1]
  disease control rating EGT: 1 (about 50-80% disease control)
[2]
  disease control rating EGP: 1 (about 50-80% disease control)
Phytophthora infestans
  disease control rating PIP: 0 (less than 50% disease control)
[3]
  disease control rating PHI: 0 (less than 50% disease control)
Rhizoctonia solani
  disease control rating RSI: 0 (less than 50% disease control)
Venturia inaequalis
  disease control rating VII: 0 (less than 50% disease control)
Pyricularia oryzae
  disease control rating PO: 0 (less than 50% disease control)

## CC(C)(C)C1CCC2(CC1)CC(Nc1ccc(Cl)cc1)CO2 (stereo not shown) [Compound 23]
Plasmopara viticola
  disease control rating PVA: 0 (less than 50% disease control)
Alternaria solani
  disease control rating AS: 0 (less than 50% disease control)
Botrytis cinerea
  disease control rating BCB: 0 (less than 50% disease control)
Leptosphaeria nodorum
  disease control rating LN: 0 (less than 50% disease control)
[1]
  disease control rating EGT: 0 (less than 50% disease control)
[2]
  disease control rating EGP: 0 (less than 50% disease control)
Phytophthora infestans
  disease control rating PIP: 0 (less than 50% disease control)
[3]
  disease control rating PHI: 0 (less than 50% disease control)
Rhizoctonia solani
  disease control rating RSI: 0 (less than 50% disease control)
Venturia inaequalis
  disease control rating VII: 2 (greater than 80% disease control)
Pyricularia oryzae
  disease control rating PO: 0 (less than 50% disease control)

## CC(C)(C)c1ccc(NC2COC3(CCC(C(C)(C)C)CC3)C2)cc1 (stereo not shown) [Compound 24]
Plasmopara viticola
  disease control rating PVA: 0 (less than 50% disease control)
Alternaria solani
  disease control rating AS: 0 (less than 50% disease control)
Botrytis cinerea
  disease control rating BCB: 0 (less than 50% disease control)
Leptosphaeria nodorum
  disease control rating LN: 0 (less than 50% disease control)
[1]
  disease control rating EGT: 0 (less than 50% disease control)
[2]
  disease control rating EGP: 0 (less than 50% disease control)
Phytophthora infestans
  disease control rating PIP: 0 (less than 50% disease control)
[3]
  disease control rating PHI: 0 (less than 50% disease control)
Rhizoctonia solani
  disease control rating RSI: 0 (less than 50% disease control)
Venturia inaequalis
  disease control rating VII: 0 (less than 50% disease control)
Pyricularia oryzae
  disease control rating PO: 0 (less than 50% disease control)

## CCCCc1ccc(NC2COC3(CCC(C(C)(C)C)CC3)C2)cc1 (stereo not shown) [Compound 25]
Plasmopara viticola
  disease control rating PVA: 0 (less than 50% disease control)
Alternaria solani
  disease control rating AS: 0 (less than 50% disease control)
Botrytis cinerea
  disease control rating BCB: 0 (less than 50% disease control)
Leptosphaeria nodorum
  disease control rating LN: 0 (less than 50% disease control)
[1]
  disease control rating EGT: 0 (less than 50% disease control)
[2]
  disease control rating EGP: 0 (less than 50% disease control)
Phytophthora infestans
  disease control rating PIP: 0 (less than 50% disease control)
[3]
  disease control rating PHI: 0 (less than 50% disease control)
Rhizoctonia solani
  disease control rating RSI: 0 (less than 50% disease control)
Venturia inaequalis
  disease control rating VII: 0 (less than 50% disease control)
Pyricularia oryzae
  disease control rating PO: 0 (less than 50% disease control)

## CCCCc1ccc(CNC2COC3(CCC(C(C)(C)C)CC3)C2)cc1 (stereo not shown) [Compound 26]
Plasmopara viticola
  disease control rating PVA: 0 (less than 50% disease control)
Alternaria solani
  disease control rating AS: 1 (about 50-80% disease control)
Botrytis cinerea
  disease control rating BCB: 0 (less than 50% disease control)
Leptosphaeria nodorum
  disease control rating LN: 0 (less than 50% disease control)
[1]
  disease control rating EGT: 2 (greater than 80% disease control)
[2]
  disease control rating EGP: 2 (greater than 80% disease control)
Phytophthora infestans
  disease control rating PIP: 0 (less than 50% disease control)
[3]
  disease control rating PHI: 1 (about 50-80% disease control)
Rhizoctonia solani
  disease control rating RSI: 0 (less than 50% disease control)
Venturia inaequalis
  disease control rating VII: 1 (about 50-80% disease control)
Pyricularia oryzae
  disease control rating PO: 0 (less than 50% disease control)

## CCCCCCNC1COC2(CCC(C(C)(C)C)CC2)C1 (stereo not shown) [Compound 27]
Plasmopara viticola
  disease control rating PVA: 0 (less than 50% disease control)
Alternaria solani
  disease control rating AS: 0 (less than 50% disease control)
Botrytis cinerea
  disease control rating BCB: 0 (less than 50% disease control)
Leptosphaeria nodorum
  disease control rating LN: 0 (less than 50% disease control)
[1]
  disease control rating EGT: 2 (greater than 80% disease control)
[2]
  disease control rating EGP: 2 (greater than 80% disease control)
Phytophthora infestans
  disease control rating PIP: 0 (less than 50% disease control)
[3]
  disease control rating PHI: 1 (about 50-80% disease control)
Rhizoctonia solani
  disease control rating RSI: 0 (less than 50% disease control)
Venturia inaequalis
  disease control rating VII: 1 (about 50-80% disease control)
Pyricularia oryzae
  disease control rating PO: 0 (less than 50% disease control)
